The nature of data set [1]: Membrane efficiency screening test (membrane efficiency screening equipment). The note with it: about 25° Celsius, about 15 MPa. How it is done:
Two types of test equipment are used for the present invention: (i) membrane efficiency screening equipment for tests conducted at 25° Celsius and the test solution at 15 MPa, and (ii) autonomous triaxial test equipment for tests conducted at temperatures above 25° Celsius and/or the test solution at 35 MPa.
The membrane efficiency screening equipment has six test cells. Six different test solutions can be tested under simulated downhole pressure conditions, at any one time with independent, individual test cell control. Referring to FIG. 4, the parts of the cell are shown as follows: Cell-1; Base-2; Bleed Port-3; Confining Fluid Port-4; Downstream Pressure Line (pore fluid)-5; Upstream Pressure Line (test solution)-6; Knurl-7; Top Platen-8; Membrane-9; Sample-10; Bottom Platen-11; O-Rings-12; Collar-13; and Seal-14.
The cell of FIG. 4 has a confining pressure and pore pressure capacity of 35 MPa and 20 MPa respectively. The confining pressure is applied with a Haskel pump and controlled with a high precision stepping motor pump control system. […] Two separate high-pressure gas cylinders provide the upstream and downstream pressures which are controlled by high pressure regulators.
The test procedures for the membrane efficiency screening equipment are as follows: • (a) bleed top (downstream) and bottom (upstream) platens 8 and 11 with simulated pore fluid; • (b) place a sample 10 (25 mm diameter and approximately 10 mm long) between the platens 8 and 11; • (c) jacket the sample in a 1.0 mm thick Viton membrane 9; • (d) mount O-rings 12 over the jacket on the platens 8 and 11; • (e) mount the cell 1; • (f) fill the cell 1 with water; • (g) apply a confining pressure of 20 MPa (via port 4); • (h) apply a back (upstream) pressure of 10 MPa (via line 6) and check for flow across the (upstream) platen 8; • (i) open the downstream pressure valve (on line 5) if the (downstream) pressure is less than 10 MPa; • (j) when the downstream pressure has stabilised at 10 MPa (pressure change <50 kPa/hour, i.e. sample has consolidated), increase the upstream pressure to 15 MPa; • (k) when the downstream pressure has increased by at least 2 MPa (pressure transmitted from the upstream end), reduce the upstream pressure to 10 MPa; • (l) when the downstream pressure has stabilised at 10 MPa (pressure change <50 kPa/hour, i.e. sample has reconsolidated), displace the pore fluid at the upstream end with the test solution at 15 MPa (water activity of test solution is not reduced with electrolyte, i.e. essentially the same as that of the shale); • (m) when the downstream pressure has increased and stabilised (pressure transmitted from the upstream end), displace the test solution (at the upstream end) with the lower water activity solution; • (n) adjust the lower water activity solution circulation rate; and • (o) terminate the test when a maximum decrease in the downstream pressure is observed.
The membrane efficiency obtained from a test is defined as percentage ratio of the maximum differential pressure developed across the shale sample (upstream pressure minus minimum downstream pressure during chemical potential stage) and the theoretical osmotic pressure of the test solution-shale system. The theoretical osmotic pressure is given by: [formula] where Π=osmotic pressure (kPa) • R=gas constant (0.083 liter atm mol^−1 ° K^−1) • T=absolute temperature (° K) • V=partial molar volume of water (0.018 litre mol^−1) • Asol=water activity of lower water activity solution • Ash=water activity of shale

Data set [2] can be described thus: Phase transition to a hexagonal phase (aqueous concentration). In kind it is physicochemical. The following applies: about pH 10; about 25° Celsius.
The conditions of data set [3]: cited from earlier work.
A short description of data set [4]: Membrane efficiency test in autonomous triaxial test equipment (temperatures above 25° Celsius and/or 35 MPa). How it is done:
Based on the aforementioned fundamental understanding of the membrane generation mechanisms for acid-base species, we have discovered a range of novel compounds for use in water-based drilling fluids that have the capacity to generate a highly efficient membrane on the borehole wall in argillaceous formations. […] Two types of test equipment are used for the present invention: (i) membrane efficiency screening equipment for tests conducted at 25° Celsius and the test solution at 15 MPa, and (ii) autonomous triaxial test equipment for tests conducted at temperatures above 25° Celsius and/or the test solution at 35 MPa.
Referring to FIG. 5, the parts of the cell are shown as follows: Top Plate-20; Bottom Platen-21; Load Cell-22; Top Cap-23; Downstream Pore Pressure Port-24; Removable Cell Body-25; Radial Gauges-26; LVDT-27; Upstream Pore Pressure Port-28; Clamping Ring-29; Upstream Flush Pressure Port-30; O-Ring-31; Membrane-32; Temperature Sensor-33; and Sample 34.
The cell of FIG. 5 has a confining pressure and pore pressure capacity of 70 MPa.
The instruments used to measure the behaviour of the test sample 34 are as follows: • (a) two diametrically-opposed LVDTs (Linear Variable Differential Transformers) 27 mounted between the sample end platens to measure axial deformation of the sample 34; • (b) four cantilever (orthogonal) radial gauges 26 mounted at mid-height of the sample 34 to measure radial deformation; • (c) two thermal sensors 33 to measure sample 34 top and bottom temperatures; • (d) a load cell 22 located underneath the bottom platen 21 to measure axial deviatoric load (not used); • (e) a pressure transducer to measure cell (confining) pressure; and • (f) two pressure transducers to measure pore pressure at both ends of the sample 34.
A computer-controlled system was used to control the cell and pore pressures with stepping motor pumps, and to perform data acquisition. During the test, the cell temperature was maintained constant by placing the autonomous triaxial cell in a temperature-controlled oven. […]

For `Oc1ccc2ccccc2c1` [2-naphthol], the “Change of membrane generation capacity with pH” value (“Change” below) in data set [1] (for a given concentration) is listed as “did not change significantly between the pH range”.

Regarding `CCCCCCCC/C=C\CCCCCCCC(=O)[O-].C[N+](C)(C)C` [Tetramethylammonium oleate], the Membrane efficiency result in data set [1] (about 5 to about 10 wt %, pH about 9, water activity reduced with 33.4 wt % tetramethylammonium chloride) is “up to 44%”. In addition, in data set [2], the “Concentration at which phase transition to a hexagonal phase occurs” value was “about 20 wt %”.

In the case of `C[Si](O)(O)O` [methyl silanetriol], in data set [3], the pKa result was “about 11”.

Regarding `[Cl-].[K+]` [potassium chloride, reference compound], the Membrane efficiency result in data set [1] (stock solution about 26.3 wt % potassium chloride, pH not adjusted) is “about 9%”.

Turning to `C[N+](C)(C)C.[Cl-]` [tetramethylammonium chloride, reference compound], the Membrane efficiency result in data set [1] (stock solution about 33.4 wt % tetramethylammonium chloride, pH not adjusted) is “about 8%”.

Regarding `CCCCCCCCCCCC(=O)[O-].C[N+](C)(C)C` [tetramethylammonium laurate], the Membrane efficiency result in data set [1] (about 5 to about 10 wt %, pH about 7.6 to about 11.5, water activity reduced with 33.4 wt % tetramethylammonium chloride) is recorded as “up to 57%”. Moreover, the “Change” value in data set [1] (for a given concentration) is on record as “increased significantly when pH was increased from about 7.6 to about 11.5”. Also, the “Concentration at which phase transition to a hexagonal phase occurs” value in data set [2] is given as “about 20 wt %”.

For the compound Potassium methyl siliconate, the Membrane efficiency entry in data set [1] (about 5 to about 10 wt %, pH about 11.95 to about 12.8, 12, 15 or 20 wt % sodium chloride) is “up to 80%”; in data set [4] (test solutions at about 35 MPa, about 40° Celsius to about 80° Celsius) it was “approximately 54%”. The “Change” value in data set [1] (for a given concentration) is “increased greatly when pH was reduced from about 12.8 to about 11.95”. The “Effect of temperature on membrane generation capacity” value in data set [4] (temperature up to about 80° Celsius) is given as “not significantly affected by temperature of up to about 80° Celsius”. Also, the “Effect of test solution pressure on membrane generation capacity” value in data set [4] (test solutions at about 35 MPa) is “only slightly reduced”.

On to silicic acid, for which the “Change” value is “essentially the same between pH of about 11.15 and about 12.5” in data set [1] (about 1 wt % and about 2.5 wt %); “increases with increase in pH” in data set [1] (about 5 wt % to about 10 wt %). Further, in data set [1] (all concentrations evaluated (about 1 to about 10 wt %), pH about 11.15 to about 12.5, 12 wt % sodium chloride), the Membrane efficiency is listed as over 70%.

For the compound sodium methyl siliconate, the Membrane efficiency result in data set [1] (about 5 to about 10 wt %, pH about 11.9 to about 12.6, 12 wt % sodium chloride or 16 wt % potassium chloride) is reported as “up to 86%”. For the same compound, the “Change” value in data set [1] (for a given concentration) is “increased greatly when pH was reduced from about 12.6 to about 11.9”.

The record behind these values is patent publication US6997270B2, “Compounds and method for generating a highly efficient membrane in water-based drilling fluids” (Halliburton Energy Services, Inc., priority 2000, dated 2006).
